The record followed here is EP0298135A1, “Phenylalanine derivative and proteinase inhibitor” (Okamoto, Shosuke, priority 1987, dated 1989).

Holding throughout (assay type): biochemical
One test deals with human plasma kallikrein (Homo sapiens, UniProt P03952). Nature of the test: Anti-plasma kallikrein activity: inhibition of S-2302 decomposition. Conditions: Table 2; substrate S-2302, pH 7.8, 37°C; read-out: Plasma Kallikrein S-2302 (concentration I₅₀). On the procedure: An inhibitor sample is dissolved in a 0.05 M Tris-hydrochloric acid buffer solution (pH = 7.8) to bring the total volume to 400 µl. […] Then, 50 µl of a 0.l2 unit/ml human plasma kallikrein is added and the mixture is incubated at a temperature of 37°C for 5 minutes. Thereafter, 50 µl of 50% acetic acid is added to terminate the reaction. […] Thus, the concentration I₅₀ (µmol) of the inhibitor sample, at which the absorbance is one half (i.e., l/2) of that obtained in the absence of the inhibitor sample, is determined.
Sequence of human plasma kallikrein (P03952 391-638 limits assumed): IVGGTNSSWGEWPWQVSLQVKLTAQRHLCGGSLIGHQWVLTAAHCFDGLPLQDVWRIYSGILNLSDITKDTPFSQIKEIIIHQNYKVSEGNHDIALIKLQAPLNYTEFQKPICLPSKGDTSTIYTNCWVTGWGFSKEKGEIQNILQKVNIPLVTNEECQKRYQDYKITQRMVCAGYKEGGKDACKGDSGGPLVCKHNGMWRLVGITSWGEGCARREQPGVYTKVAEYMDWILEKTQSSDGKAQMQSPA
Sequence of human plasma kallikrein (P03952 20-390 partner limits assumed): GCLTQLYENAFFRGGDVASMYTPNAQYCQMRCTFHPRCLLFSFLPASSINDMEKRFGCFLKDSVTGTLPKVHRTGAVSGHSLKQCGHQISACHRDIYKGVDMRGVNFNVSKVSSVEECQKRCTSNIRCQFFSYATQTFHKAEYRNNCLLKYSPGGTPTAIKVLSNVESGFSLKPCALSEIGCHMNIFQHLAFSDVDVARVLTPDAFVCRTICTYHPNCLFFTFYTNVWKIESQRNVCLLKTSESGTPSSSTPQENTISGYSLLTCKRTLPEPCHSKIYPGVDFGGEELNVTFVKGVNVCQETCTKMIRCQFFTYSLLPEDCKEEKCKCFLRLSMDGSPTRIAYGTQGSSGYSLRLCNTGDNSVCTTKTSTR

The target in test [1] is T1, bovine thrombin (Bos taurus, UniProt P00735). Nature of the test: Antithrombin activity: inhibition of fibrin formation from fibrinogen. How it is done:
(i) Determination of inhibition activity against fibrin formation
An inhibitor sample is dissolved in a 0.l8 M borate-physiological salt buffer solution (pH = 7.4) to bring the total volume to 500 µl. To this solution, 400 µl of a 0.2% bovine fibrinogen solution and l00 µl of a 4 unit/ml bovine thrombin solution are added at a temperature of 37°C in a constant temperature bath. Thus, a coagulation time is determined. The inhibitor concentration I₅₀ (µmol), at which the coagulation time obtained in the absence of the inhibitor is extended twice, is determined.

A further test addresses T2, bovine trypsin (Bos taurus, UniProt P00760).
T2 sequence (P00760 24-246): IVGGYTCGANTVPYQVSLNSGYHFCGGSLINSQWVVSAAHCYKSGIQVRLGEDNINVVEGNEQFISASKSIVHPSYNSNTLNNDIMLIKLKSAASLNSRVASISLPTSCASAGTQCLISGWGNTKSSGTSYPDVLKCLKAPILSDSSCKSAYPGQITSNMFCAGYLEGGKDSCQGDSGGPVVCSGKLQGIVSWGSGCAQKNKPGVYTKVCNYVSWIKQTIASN
Nature of the test: Antitrypsin activity: inhibition of S-2238 decomposition. Conditions: Table 2; substrate S-2238, pH 8.1, 37°C; read-out: Trypsin S-2238 (concentration I₅₀). On the procedure: Determination of inhibition activity against S-2238 decomposition An inhibitor sample is dissolved in a 0.05 M Tris-imidazole buffer solution (pH = 8.l) and l25 µl of a l mM S-2238 solution is added to bring the total volume to l.20 ml. The mixture is incubated at a temperature of 37°C for 5 minutes in a constant temperature bath. To this mixture, 0.05 ml of bovine trypsin is added and the absorbance, at 405 nm, of the p-nitroaniline formed per minute is determined at a temperature of 37°C by using the so-called initial velocity method. Thus, the concentration I₅₀ (µmol) of the inhibitor sample, at which the absorbance is one half (i.e., l/2) of that obtained in the absence of the inhibitor sample, is determined.

In test [2] the target is T1, bovine thrombin. Briefly: Antithrombin activity: inhibition of S-2238 decomposition. On the procedure:
(ii) Determination of inhibition activity on S-2238 decomposition
An inhibitor sample is dissolved in a 0.05 M Tris-hydrochloric acid buffer solution (pH = 8.3) to bring the a total volume to 400 µl. To this solution, 50 µl of a 0.2 mM S-2238 solution is added and the mixture is incubated at a temperature of 37°C for 5 minutes in a constant temperature bath. Then 50 µl of a 0.2 unit/ml bovine thrombin solution is added thereto and the absorbance, at 405 nm, of the p-nitroaniline formed per minute is determined at a temperature of 37°C by using the so-called initial velocity method. Thus, the concentration I₅₀ (µmol) of the inhibitor sample, at which the absorbance is one half (i.e., l/2) of that obtained in the absence of the inhibitor sample, is determined.

The next test concerns the target human urokinase (Homo sapiens, UniProt P00749). Nature of the test: Antiurokinase activity: inhibition of S-2444 decomposition. Conditions: Table 2; substrate S-2444, pH 8.8, 37°C; read-out: Urokinase S-2444 (concentration I₅₀). On the procedure:
Determination of inhibition activity for S-2444 decomposition
An inhibitor sample is dissolved in a 0.05 M Tris-hydrochloric acid buffer solution (pH = 8.8) to bring the total volume to 400 µl. To this solution, 50 µl of a l mM S-2444 solution is added and the mixture is incubated at a temperature of 37°C for 5 minutes in a constant temperature bath. Then 50 µl of a 500 unit/ml human urokinase is added and the mixture is incubated at a temperature of 37°C for 5 minutes. Thereafter, 50 µl of 50% acetic acid is added to terminate the reaction. The absorbance of the p-nitroaniline formed in the reaction mixture is measured at 405 nm. Thus, the concentration I₅₀ (µmol) of the inhibitor sample, at which the absorbance is one half (i.e., l/2) of that obtained in the absence of the inhibitor sample, is determined.

Test [3] has as its target T3, human plasmin (Homo sapiens, UniProt P00747). Briefly: Antiplasmin activity: inhibition of S-2251 decomposition. Conditions: Table 2; substrate S-2251, pH 7.4, 37°C; read-out: Plasmin S-2251 (concentration I₅₀). On the procedure:
(ii) Determination of inhibition activity on S-225l decomposition
An inhibitor sample is dissolved in a 0.05 M Tris-hydrochloric acid buffer solution (pH = 7.4) to bring the total volume to 400 µl. To this solution, 50 µl of a 3 mM S-225l solution is added and the mixture is incubated at a temperature of 37°C for 5 minutes in a constant temperature bath. Then 50 µl of a 0.2 casein unit/ml human plasmin is added and the mixture is incubated at a temperature of 37°C for 4 minutes. Thereafter, the reaction is stopped by adding 50 µl of 50% acetic acid.
Thus, the concentration I₅₀ (µmol) of the inhibitor sample, at which the absorbance is one half (i.e., l/2) of that obtained in the absence of the inhibitor, is determined.

Test [4] concerns the target T3, human plasmin. Briefly: Antiplasmin activity: inhibition of fibrin decomposition. Conditions: Table 2; concentration at which fibrin dissolution time is extended twice, pH 7.4, 37°C; read-out: Plasmin Fibrin (concentration I₅₀). How it is done: (i) Determination of inhibition activity on fibrin decomposition
An inhibitor sample is dissolved in a 0.l8 M borate-physiological salt buffer solution (pH = 7.4) to bring the total volume to 600 µl. To this buffer solution, 200 µl of a 0.2% bovine fibrinogen, l00 µl of a 0.3 casein unit/ml human plasmin solution, and l00 µl of a 50 unit/ml bovine thrombin solution, all dissolved in the above-mentioned buffer, are added at a temperature of 37°C in a constant temperature bath. The dissolution time of the fibrin mass formed above is then determined.

T3 sequence (P00747 581-810 limits assumed): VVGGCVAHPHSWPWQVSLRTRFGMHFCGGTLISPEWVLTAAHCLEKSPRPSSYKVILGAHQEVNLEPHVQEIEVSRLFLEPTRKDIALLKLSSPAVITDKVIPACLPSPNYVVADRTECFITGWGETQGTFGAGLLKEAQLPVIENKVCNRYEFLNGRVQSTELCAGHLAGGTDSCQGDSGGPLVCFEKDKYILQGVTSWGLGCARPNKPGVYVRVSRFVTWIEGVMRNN
T3 sequence (P00747 97-580 partner limits assumed): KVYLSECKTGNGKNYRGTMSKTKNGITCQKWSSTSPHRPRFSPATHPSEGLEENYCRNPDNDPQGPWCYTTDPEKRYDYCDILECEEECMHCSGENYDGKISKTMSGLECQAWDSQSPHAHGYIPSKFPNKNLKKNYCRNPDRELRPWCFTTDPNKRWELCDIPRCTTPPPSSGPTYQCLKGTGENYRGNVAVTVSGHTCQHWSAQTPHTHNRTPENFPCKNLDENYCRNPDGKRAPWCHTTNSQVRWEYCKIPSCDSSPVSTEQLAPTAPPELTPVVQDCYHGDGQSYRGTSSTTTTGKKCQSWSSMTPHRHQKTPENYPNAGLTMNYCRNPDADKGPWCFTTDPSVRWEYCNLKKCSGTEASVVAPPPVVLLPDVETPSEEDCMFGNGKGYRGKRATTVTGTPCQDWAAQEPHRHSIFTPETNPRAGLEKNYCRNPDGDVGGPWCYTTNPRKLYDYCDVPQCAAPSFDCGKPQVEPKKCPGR

`COc1ccc(NC(=O)[C@H](Cc2ccccc2)NC(=O)c2ccc(NC(=N)N)cc2)cn1` [compound 18]: the IC50 on human plasma kallikrein is 12 µM; against bovine thrombin [1], more than 1000 µM; at bovine trypsin it was 35 µM; against bovine thrombin [2], more than 1000 µM; at human urokinase it was 630 µM.
In the case of `CC1CCC(NC(=O)[C@H](Cc2ccccc2)NC(=O)c2ccc(NC(=N)N)cc2)CC1C` (stereo partly drawn) [compound 21], the IC50 was 15 µM at human plasma kallikrein; 450 µM on human plasmin [3]; more than 100 µM at bovine thrombin [1]; 6 µM at bovine trypsin; 400 µM on bovine thrombin [2]; 740 µM on human urokinase.
As to `COC(=O)[C@@H]1CCCN1C(=O)[C@H](Cc1ccccc1)NC(=O)c1ccc(NC(=N)N)cc1` [compound 22], the IC50 at human plasma kallikrein, at human plasmin [3], at bovine thrombin [1], at human plasmin [4], against bovine thrombin [2] and on human urokinase was more than 1000 µM throughout.
In the case of `NCCCCCC(=O)N[C@@H](Cc1ccc(O)cc1)C(=O)Nc1ccc(C(=O)c2ccccc2)cc1` [compound 7], the IC50 at human plasma kallikrein was more than 120 µM; on human plasmin [3], more than 100 µM; on bovine thrombin [1], more than 120 µM; at bovine thrombin [2] it was more than 180 µM; at human urokinase it was 120 µM.
`CCOC(=O)CC(O)CNC(=O)[C@H](Cc1ccccc1)NC(=O)CCCCN` (stereo partly drawn) [Compound No. 3]: the IC50 at human plasmin [3], at bovine thrombin [1], at human plasmin [4], at bovine thrombin [2] and at human urokinase was more than 1000 µM in each case.
`CC(=O)c1ccc(NC(=O)[C@H](Cc2ccccc2)NC(=O)c2ccc(NC(=N)N)cc2)cc1` [compound 15]: the IC50 at human plasma kallikrein was 2.2 µM; on human plasmin [3], more than 400 µM; against bovine thrombin [1], more than 500 µM; on bovine trypsin, 14 µM; on human plasmin [4], more than 200 µM; on bovine thrombin [2], 330 µM. In addition, the IC50 at human urokinase came to 190 µM.
In the case of `NCCCCC(=O)N[C@@H](Cc1ccccc1)C(=O)Nc1ccc(C(=O)c2ccccc2)cc1` [Compound No. 2, N-(5-aminovaleryl)-L-phenylalanine 4-benzoylanilide], the IC50 was 120 µM on human plasmin [3]; more than 100 µM on bovine thrombin [1]; 75 µM on bovine trypsin; more than 100 µM on human plasmin [4]; more than 200 µM at bovine thrombin [2].
Consider `CCOC(=O)CC(O)CNC(=O)[C@H](Cc1ccccc1)NC(=O)CCCCCN` (stereo partly drawn) [compound 5], for which the IC50 at human plasma kallikrein, on human plasmin [3], against bovine thrombin [1], on human plasmin [4], against bovine thrombin [2] and at human urokinase was more than 500 µM each time.
